Square brackets hold non-standard residues; d marks the D form. Peptide text beside a SMILES is read from it. * marks the point of attachment. NH(CH2)3O(2-CNpyrimidin5yl) = N#Cc1ncc(OCCCN*)cn1; 4Amb = NCc1ccc(C(=O)O)cc1; Pra = C#CC[CH](N)C(=O)O; Cbz = O=C(OCc1ccccc1)*; CH2F = FC*; SEt = CCS*
Experiments:
[1] = Condensation kinetics of aminothiols with CBT (HPLC assay); format: physicochemical; settings: substituted cysteine analogues with CBT, FIG. 50B
Procedure: General Methods for Measuring Kinetics of Condensation Reactions Between Aromatic Nitriles and Aminothiols: The 2nd order rate constants for condensation reactions between aromatic nitriles and aminothiols were measured by using HPLC assays. To solutions of aromatic nitriles (100 μM) in phosphate buffered saline (PBS) (1×, pH=7.4) were added aminothiol (1.0 equiv.), TCEP (2.0 equiv.) and NaHCO3 (3 equiv.). The reaction solutions were kept at room temperature (23° C.) and monitored by HPLC at different time points. The conversion rates were calculated using the peak integrals of aromatic nitriles and the condensation products at 254 nm. Based on 2nd order reaction law, 1/[aromatic nitrile] was plotted against time and the slope of the linear regression result gives the 2nd order rate constant.

[2] = L-cysteine with CBT; reported in Reference 13; cited from earlier work
[3] = test system: MetAP2 activity in PC3 cells; assay: Imaging MetAP2 activity in PC3 cells (post click Cy5 labeling); format: cell-based, human; settings: 24 h
Procedure: FIG. 45B illustrates fluorescence microscopy imaging of cy5 post-labeled M-SNAT (20 μM) with or without TNP470 and M-SNAT-ctrl (20 μM) in PC3 cells. Permealized cells were also stained with DAPI (blue).
Imaging MetAP2 activity in cancer cells: Cell uptake and MetAP2 specific activation of M-SNAT and M-SNAT-ctrl were evaluated in PC3 and DU145 cells with the MetAP2-specific inhibitor TNP-470. Post click fluorescent labeling was performed as illustrated in FIG. 45A to locate the nanoaggregation in cells and avoid the possible interference with probe uptake by pre-conjugating a large Cy5 fluorophore.

[4] = test system: MetAP2 activity in DU145 cells; assay: Imaging MetAP2 activity in DU145 cells (post click Cy5 labeling); format: cell-based, human
Procedure: Imaging MetAP2 activity in cancer cells: […] Post click fluorescent labeling was performed as illustrated in FIG. 45A to locate the nanoaggregation in cells and avoid the possible interference with probe uptake by pre-conjugating a large Cy5 fluorophore.

[5] = test system: MetAP2 activity in 22Rv1 cells; assay: Imaging MetAP2 activity in 22Rv1 cells (post click Cy5 labeling); format: cell-based, human; settings: MetAP2 knockdown 22Rv1 cells, 24 h
recombinant human MetAP2 = recombinant human MetAP2 (Homo sapiens, UniProt P50579); assay: Macrocyclization and nanoaggregation of M-SNAT with recombinant MetAP2
[6] = test system: caspase-3 activity in H460 cells; assay: Confocal imaging of cisplatin-treated H460 cells with C-SNAF4-Cy5; format: cell-based, human; settings: 50 μM
Procedure: Confocal Microscopy Imaging of Cisplatin-treated H460 Cells With C-SNAF4-Cy5: NCI-H460 cells at 70% confluency were either left naïve or treated with cisplatin (10 μM) for 24 hours. After removal of the medium, cells were incubated with 2 μM C-SNAF4-Cy5 at 37° C. for 24 hours. For the inhibition study, cells were first incubated with pan-caspase inhibitor Z-VAD-fmk (50 μM, 30 min) before incubation with C-SNAF4-Cy5.

caspase-3 = molecular target: T1, caspase-3 (Homo sapiens, UniProt P42574); assay: Nanoaggregation of [19F]-C-SNAT4 after caspase-3 activation (DLS, TEM); format: biochemical
T1 construct: before and after addition of active caspase-3 (Casp3) enzyme; purchased Sigma; host or cells: E. coli
T1 sequence (P42574 29-175 limits assumed): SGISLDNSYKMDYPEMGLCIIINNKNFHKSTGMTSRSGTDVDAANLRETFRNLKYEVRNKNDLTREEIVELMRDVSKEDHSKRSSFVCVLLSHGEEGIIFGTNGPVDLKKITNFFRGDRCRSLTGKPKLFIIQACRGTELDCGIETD
T1 sequence (P42574 176-277 limits assumed): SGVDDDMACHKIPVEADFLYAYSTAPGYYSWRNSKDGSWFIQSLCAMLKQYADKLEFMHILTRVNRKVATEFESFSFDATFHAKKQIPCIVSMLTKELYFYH
Procedure: FIG. 1C illustrates the TEM images of [^19F]-C-SNAT4 before and after addition of active caspase-3 (Casp3) enzyme. [^19F]-C-SNAT4 (20 μM) was incubated with caspase-3 (2×10^−3U mL^−1, human, recombinant from E. coli, Sigma) in caspase buffer at 37° C. overnight.
FIG. 12 illustrates in vitro validation and nanoaggregation characterization of [^19F]-C-SNAT4. [^19F]-C-SNAT4 and formation of cycl-[^19F]-SNAT4 after [^19F]-C-SNAT4 incubated with caspase-3 were analyzed by (A) HPLC, (B) DLS of [^19F]-C-SNAT4 without and with caspase-3 incubation. [^19F]-C-SNAT4 (20 μM) was incubated with caspase-3 (2×10^−3U mL^−1, human, recombinant from E. coli, Sigma) in caspase buffer (50 mM HEPES, 100 mM NaCl, 1 mM EDTA, 10 mM TCEP, 10% glycerol and 0.1% CHAPS at pH 7.4) at 37° C. overnight.

H460 cells = assay: MTS cell viability assay in H460 cells; format: cell-based, human
Procedure: (§1) FIG. 13 illustrates cellular toxicity analysis in H460 and H1299 cells. Cells were incubated at different concentration of [^19F]-C-SNAT4 over 24 hours. The viability of cells was measured using an MTS assay.
FIG. 14 illustrates a Cisplatin dose response curves were assessed in H460 cells by MTS assay. The curves generated by GraphPad Prism software.
FIG. 36A illustrates the toxicity of C-SNAF4-Cy5 in heathy and apoptotic NCI-H460 measured with MTS assay (37° C., 24 h) in heathy H460 cells.
FIG. 36B illustrates the toxicity of C-SNAF4-Cy5 in H460 cells treated with cisplatin (1 μM, 24 hours) followed by incubation with C-SNAF4-Cy5 (37° C., 24 h).
Cell study: All cell lines were assessed to be pathogen-free prior to use in this study. […] Cell viability was assessed with CellTiter 96.RM AQueous One Solution Cell Proliferation Assay (MTS) kit from Promega (Madison, Wis., USA). […] After 60 min of incubation at 37° C., the absorbance was read at 490 nm with a 96 well plate reader from BMG LABTECH GmbH (Ortenberg, Germany).

H1299 cells = assay: MTS cell viability assay in H1299 cells; format: cell-based, human; settings: H1299, up to 100 μM, 24 hours
Procedure: as §1
Cell study: All cell lines were assessed to be pathogen-free prior to use in this study. Human H460 and H1299 lung adenocarcinoma cells non-small cell lung cancer H460 (ATCC) and H1299 (ATCC) were cultured in Dulbecco's modified Eagle's medium (DMEM) (Invitrogen), supplement with 10% v/v fetal bovine serum (Life Technologies Inc.) and 1% v/v penicillin-streptomycin (100 IU/ml, […]; Life Technologies Inc.) at 37° C. in a humidified atmosphere maintained at 5% CO2. X-radiation was performed with an X-ray generator (0.2 mm Cu and 1 mm Al filter, 150 kV, Hitachi). The irradiation was carried out at room temperature at a dose rate of 0.2 Gy/min. Cell viability was assessed with CellTiter 96.RM AQueous One Solution Cell Proliferation Assay (MTS) kit from Promega (Madison, Wis., USA). Briefly, 100 μl aliquots of the treated or untreated cell suspension were seeded into 96-well polystyrene tissue culture plates and 20 μl of assay reagent was added to each well. After 60 min of incubation at 37° C., the absorbance was read at 490 nm with a 96 well plate reader from BMG LABTECH GmbH (Ortenberg, Germany).

H460 tumor = assay: Caliper measurement of H460 tumor volumes; format: in vivo, mice; settings: H460, high dose (9 mg/kg every other day x3, i.v.), day 13 after implantation
Procedure: (§2) FIG. 5B illustrates caliper measurement of H460 and H1299 tumor volumes in saline and drug-treated mice. Measurements are time after cell implantation, with high dose of cisplatin-treated (Intravenous injection, 9 mg/kg every other day for three times) in H460 and in H1299 tumor-bearing mice as arrow indicated (arrow). n=5 for each group.
(§3) Animal model and probe administration: For subcutaneous tumor models, H460 or H1299 (2×10^6 cells in 100 μl of PBS) were injection subcutaneously on the back of female nu/nu nude mice (aged 6 to 8 weeks; Charles River Laboratories). Tumor dimensions were measured periodically using a caliper (by the same researcher), with tumor volumes calculated by the following equation: volume=a×b×c/2, where a, b, and c represent three orthogonal axis of the tumor. Treatment-response analysis was performed 24 h after drug treatment. For all other experiments, animals were culled 26 h after therapy and tissues excised for analysis. For chemotherapy mouse model, tumors were grown to about 150 mm^3, and then treatment that consisted of cisplatin (Sigma-Aldrich; Low dose: 3 mg/kg; high dose: 9 mg/kg) or saline was initiated through intravenous administration, every other day for three times. Total mouse body weight and tumor size were measured every other day. Treat or left untreated. […]

H1299 tumor = assay: Caliper measurement of H1299 tumor volumes; format: in vivo, mice; settings: H1299, high dose (9 mg/kg every other day x3, i.v.), day 21 after implantation
Procedure: as §2, §3

Sequence of recombinant human MetAP2 (P50579 whole entry): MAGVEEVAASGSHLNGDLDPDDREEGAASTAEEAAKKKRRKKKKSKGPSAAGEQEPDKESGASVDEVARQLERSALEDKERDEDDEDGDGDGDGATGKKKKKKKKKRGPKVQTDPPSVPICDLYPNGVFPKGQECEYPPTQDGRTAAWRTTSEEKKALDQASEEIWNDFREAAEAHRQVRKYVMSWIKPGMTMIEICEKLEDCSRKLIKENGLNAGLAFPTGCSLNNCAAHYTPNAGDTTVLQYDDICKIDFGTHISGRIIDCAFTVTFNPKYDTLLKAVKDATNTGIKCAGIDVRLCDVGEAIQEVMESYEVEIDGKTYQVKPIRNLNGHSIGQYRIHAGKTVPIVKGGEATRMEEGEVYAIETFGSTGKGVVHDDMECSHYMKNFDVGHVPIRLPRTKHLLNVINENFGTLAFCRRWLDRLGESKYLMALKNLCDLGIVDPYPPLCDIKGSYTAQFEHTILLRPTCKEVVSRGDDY

SMILES: N[C@@H](CS)C(=O)O [L-cysteine]
- second-order reaction rate [1]: 3.2 M⁻¹ s⁻¹
- 2nd order rate constant k [2]: 2.9 M⁻¹ s⁻¹

SMILES: C#CCC(NC(=O)CNC(=O)C(CSSCC)NC(=O)C(N)CCSC)C(=O)NCc1ccc(C(=O)NCCCOc2cnc(C#N)nc2)cc1 (stereo not shown) [M-SNAT] (H-MC(SEt)G[Pra][4Amb]-{NH(CH2)3O(2-CNpyrimidin5yl)}; configuration not given here)
- Cy5 post-labeled fluorescence in cells ([3]; MetAP2 knockdown PC3 cells): much weaker red fluorescence
- Cy5 post-labeled fluorescence in cells ([3]; PC3, 20 μM): red fluorescence was observed
- accumulation in cells ([4]; DU145): dose-dependent manner
- Cy5 post-labeled fluorescence in cells ([4]; DU145, 20 μM, 24 h): red fluorescence was observed
- Cy5 post-labeled fluorescence in cells [5]: much weaker red fluorescence
- average diameter of nanoparticles (DLS, TEM) (recombinant human MetAP2; 10 μM, MetAP2 7.5 μg/ml, 24 h): 861 nm
- diameter range of nanoparticles (recombinant human MetAP2; 10 μM, MetAP2 7.5 μg/ml, 24 h): 531-1281 nm
- macrocyclization (HPLC, mass spectrometry) (recombinant human MetAP2; 10 μM, MetAP2 7.5 μg/ml, TCEP, 24 h): converted into M-SNAT-cyclized
- average diameter of nanoparticles (DLS) (recombinant human MetAP2; FIG. 44B): 861 nM
- diameter range of nanoparticles (DLS) (recombinant human MetAP2; FIG. 44B): 531 to 1281 nM

SMILES: COC(=O)C[C@H](NC(=O)[C@H](C)NC(=O)[C@@H](NC(=O)OCc1ccccc1)C(C)C)C(=O)CF [Z-VAD-fmk] (Cbz-Val-Ala-Asp(OMe)-CH2F)
- effect on C-SNAF4-Cy5 fluorescence [6]: Fluorescence abolishment

SMILES: CCSSCC(NC(=O)C(CC(=O)O)NC(=O)C(NC(=O)C(CCC(=O)O)NC(=O)C(CC(=O)O)NC(C)=O)C(C)C)C(=O)NCC(=O)NC(Cc1cn(CCOCCOCCOCCF)nn1)C(=O)NCc1ccc(C(=O)NCCCOc2cnc(C#N)nc2)cc1 (stereo not shown) [[^19F]-C-SNAT4]
- average size of nanoparticles (DLS) (caspase-3): around 200 nm
- cytotoxicity (H460 cells; H460, up to 100 μM, 24 hours): no toxicity
- cytotoxicity (H1299 cells): no toxicity

SMILES: N.N.[Cl][Pt][Cl] [cisplatin]
- IC50 (H460 cells; H460, MTS assay, read-out: half-maximal inhibitory concentration (IC50)): 9.51 µM
- tumor volume (H460 tumor): 690.8±88.6 mm^3
- tumor volume (H1299 tumor): 1348.5±356.0 mm^3

Source: patent US11679168B2, “Caspase-3-triggered molecular self-assembling PET probes and uses thereof” (The Board of Trustees of the Leland Stanford Junior …, priority 2018, dated 2023)
